Question: With `CC(C)(C)C(=O)C(Oc1ccc(Cl)cc1)n1ccnc1` (stereo not drawn) as the compound, how does the solubility (mole fraction) (in acetone, 288.15 K) read?
Answer: The solubility (mole fraction) was 0.147.

Question: And the solubility (mole fraction) (in acetone, 293.15 K)?
Answer: Its solubility (mole fraction) is 0.164.

Question: What about the solubility (mole fraction) (in acetone, 298.15 K) of the same compound?
Answer: Its solubility (mole fraction) is 0.185.

Question: And the solubility (mole fraction) (in acetone, 303.15 K)?
Answer: Its solubility (mole fraction) is 0.207.

Question: And the solubility (mole fraction) (in acetone, 308.15 K)?
Answer: The solubility (mole fraction) was 0.235.

Question: What about the solubility (mole fraction) (in acetone, 313.15 K) of the same compound?
Answer: The solubility (mole fraction) was 0.259.

Question: What about the solubility (mole fraction) (in acetone, 318.15 K) of the same compound?
Answer: Its solubility (mole fraction) is 0.301.

Question: What about the solubility (mole fraction) (in acetonitrile, 288.15 K) of the same compound?
Answer: The solubility (mole fraction) was 0.0724.

Question: What about the solubility (mole fraction) (in acetonitrile, 293.15 K) of the same compound?
Answer: Its solubility (mole fraction) is 0.083.

Question: And the solubility (mole fraction) (in acetonitrile, 298.15 K)?
Answer: Its solubility (mole fraction) is 0.103.

Question: And the solubility (mole fraction) (in acetonitrile, 303.15 K)?
Answer: The solubility (mole fraction) was 0.129.

Question: And the solubility (mole fraction) (in acetonitrile, 308.15 K)?
Answer: The solubility (mole fraction) was 0.158.

Question: What about the solubility (mole fraction) (in acetonitrile, 313.15 K) of the same compound?
Answer: The solubility (mole fraction) was 0.19.

Question: And the solubility (mole fraction) (in acetonitrile, 318.15 K)?
Answer: The solubility (mole fraction) was 0.222.

Question: And the solubility (mole fraction) (in ethanol, 288.15 K)?
Answer: The solubility (mole fraction) was 0.112.

Question: And the solubility (mole fraction) (in ethanol, 293.15 K)?
Answer: Its solubility (mole fraction) is 0.132.

Question: What about the solubility (mole fraction) (in ethanol, 298.15 K) of the same compound?
Answer: Its solubility (mole fraction) is 0.157.

Question: And the solubility (mole fraction) (in ethanol, 303.15 K)?
Answer: The solubility (mole fraction) was 0.185.

Question: And the solubility (mole fraction) (in ethanol, 308.15 K)?
Answer: Its solubility (mole fraction) is 0.211.

Question: What about the solubility (mole fraction) (in ethanol, 313.15 K) of the same compound?
Answer: The solubility (mole fraction) was 0.25.

Question: What about the solubility (mole fraction) (in ethanol, 318.15 K) of the same compound?
Answer: The solubility (mole fraction) was 0.288.

Question: What about the solubility (mole fraction) (in ethyl acetate, 288.15 K) of the same compound?
Answer: Its solubility (mole fraction) is 0.0909.

Question: And the solubility (mole fraction) (in ethyl acetate, 293.15 K)?
Answer: The solubility (mole fraction) was 0.105.

Question: What about the solubility (mole fraction) (in ethyl acetate, 298.15 K) of the same compound?
Answer: Its solubility (mole fraction) is 0.126.

Question: What about the solubility (mole fraction) (in ethyl acetate, 303.15 K) of the same compound?
Answer: The solubility (mole fraction) was 0.151.

Question: And the solubility (mole fraction) (in ethyl acetate, 308.15 K)?
Answer: The solubility (mole fraction) was 0.172.

Question: And the solubility (mole fraction) (in ethyl acetate, 313.15 K)?
Answer: The solubility (mole fraction) was 0.202.

Question: What about the solubility (mole fraction) (in ethyl acetate, 318.15 K) of the same compound?
Answer: Its solubility (mole fraction) is 0.239.

Question: What about the solubility (mole fraction) (in isobutanol, 288.15 K) of the same compound?
Answer: Its solubility (mole fraction) is 0.098.

Question: And the solubility (mole fraction) (in isobutanol, 293.15 K)?
Answer: The solubility (mole fraction) was 0.112.

Question: And the solubility (mole fraction) (in isobutanol, 298.15 K)?
Answer: The solubility (mole fraction) was 0.137.

Question: What about the solubility (mole fraction) (in isobutanol, 303.15 K) of the same compound?
Answer: Its solubility (mole fraction) is 0.161.

Question: And the solubility (mole fraction) (in isobutanol, 308.15 K)?
Answer: Its solubility (mole fraction) is 0.192.

Question: And the solubility (mole fraction) (in isobutanol, 313.15 K)?
Answer: Its solubility (mole fraction) is 0.22.

Question: What about the solubility (mole fraction) (in isobutanol, 318.15 K) of the same compound?
Answer: Its solubility (mole fraction) is 0.26.

Question: What about the solubility (mole fraction) (in methanol, 288.15 K) of the same compound?
Answer: The solubility (mole fraction) was 0.161.

Question: And the solubility (mole fraction) (in methanol, 293.15 K)?
Answer: Its solubility (mole fraction) is 0.181.

Question: And the solubility (mole fraction) (in methanol, 298.15 K)?
Answer: The solubility (mole fraction) was 0.204.

Question: What about the solubility (mole fraction) (in methanol, 303.15 K) of the same compound?
Answer: The solubility (mole fraction) was 0.226.

Question: What about the solubility (mole fraction) (in methanol, 308.15 K) of the same compound?
Answer: The solubility (mole fraction) was 0.255.

Question: And the solubility (mole fraction) (in methanol, 313.15 K)?
Answer: Its solubility (mole fraction) is 0.28.

Question: And the solubility (mole fraction) (in methanol, 318.15 K)?
Answer: The solubility (mole fraction) was 0.318.

Question: What about the solubility (mole fraction) (in methyl acetate, 288.15 K) of the same compound?
Answer: Its solubility (mole fraction) is 0.0955.

Question: What about the solubility (mole fraction) (in methyl acetate, 293.15 K) of the same compound?
Answer: The solubility (mole fraction) was 0.109.

Question: What about the solubility (mole fraction) (in methyl acetate, 298.15 K) of the same compound?
Answer: Its solubility (mole fraction) is 0.129.

Question: What about the solubility (mole fraction) (in methyl acetate, 303.15 K) of the same compound?
Answer: The solubility (mole fraction) was 0.156.

Question: And the solubility (mole fraction) (in methyl acetate, 308.15 K)?
Answer: The solubility (mole fraction) was 0.179.

Question: What about the solubility (mole fraction) (in methyl acetate, 313.15 K) of the same compound?
Answer: Its solubility (mole fraction) is 0.214.

Question: What about the solubility (mole fraction) (in methyl acetate, 318.15 K) of the same compound?
Answer: The solubility (mole fraction) was 0.251.

Question: And the solubility (mole fraction) (in n-butanol, 288.15 K)?
Answer: Its solubility (mole fraction) is 0.111.

Question: And the solubility (mole fraction) (in n-butanol, 293.15 K)?
Answer: Its solubility (mole fraction) is 0.131.

Question: And the solubility (mole fraction) (in n-butanol, 298.15 K)?
Answer: The solubility (mole fraction) was 0.152.

Question: And the solubility (mole fraction) (in n-butanol, 303.15 K)?
Answer: Its solubility (mole fraction) is 0.181.

Question: What about the solubility (mole fraction) (in n-butanol, 308.15 K) of the same compound?
Answer: The solubility (mole fraction) was 0.205.

Question: And the solubility (mole fraction) (in n-butanol, 313.15 K)?
Answer: Its solubility (mole fraction) is 0.245.

Question: What about the solubility (mole fraction) (in n-butanol, 318.15 K) of the same compound?
Answer: Its solubility (mole fraction) is 0.283.

Question: And the solubility (mole fraction) (in n-butyl acetate, 288.15 K)?
Answer: The solubility (mole fraction) was 0.088.

Question: And the solubility (mole fraction) (in n-butyl acetate, 293.15 K)?
Answer: Its solubility (mole fraction) is 0.0994.

Question: What about the solubility (mole fraction) (in n-butyl acetate, 298.15 K) of the same compound?
Answer: The solubility (mole fraction) was 0.115.

Question: What about the solubility (mole fraction) (in n-butyl acetate, 303.15 K) of the same compound?
Answer: The solubility (mole fraction) was 0.142.

Question: And the solubility (mole fraction) (in n-butyl acetate, 308.15 K)?
Answer: The solubility (mole fraction) was 0.163.

Question: And the solubility (mole fraction) (in n-butyl acetate, 313.15 K)?
Answer: Its solubility (mole fraction) is 0.192.

Question: And the solubility (mole fraction) (in n-butyl acetate, 318.15 K)?
Answer: The solubility (mole fraction) was 0.227.
